# Assays:
# [1] = Intrinsic clearance (CLint) in human liver microsomes; type: in vitro ADME; conditions: for Rate of metabolite / intrinsic clearance in comparison to undeuterated form (95A) / rate of metabolite formation in comparison to undeuterated form (95A): human liver microsomes; for microsomal CLint at 1 μM / half-life at 1 μM: human, liver microsomes, pH 7.4, human liver microsomes; for half-life at 1 μM: read-out: T½
# Description: Intrinsic Clearance (CLint) in Human Liver Microsomes
# (§1) The final reaction volume (500 μL) contained 0.003% DMSO, 0.5% acetonitrile. The incubations were conducted at 37° C. and aliquots (50 μL) were removed at 0, 5, 10, 15, 20, 30, 45 and 60 minutes and quenched by addition to cold acetonitrile containing mass spectrometry (MS) internal standard (200 μL). Quenched incubations were vortex for 1 minute followed by centrifugation at 3000 rpm for 5 minutes at room temperature (Allegra X-12R, Beckman Coulter, Fullerton, Calif.). The supernatant (150 μL) was then removed and added to a 96-deep well injection plate containing 150 μL of water with 0.1% formic acid (v/v), the plates were capped and vortex for 1 minute and subsequently analyzed using LC-MS/MS as described below. Control incubations were prepared similar without adding the NADPH cofactor to monitor for any non-CYP/FMO metabolism. Discrete standard curves (0.5-2000 nM) were prepared, processed, and analyzed as described above.
# (§2) Disappearance of substrates 95A and 96 and formation of metabolites 95 or 96B were determined using an LC-MS/MS system which is comprised of an AB Sciex 6500 triple quadrupole mass spectrometer equipped with an electrospray source (AB Sciex, Framingham, Mass.) and Agilent Technologies Infinity 1290 (Santa Clara, Calif.). A binary gradient was employed with a flow rate of 0.500 mL/min, using 0.1% formic acid in water as the aqueous mobile phase (solvent A) and 0.1% formic acid in acetonitrile (solvent B) as the organic phase. The LC gradient profile begins at 5% solvent B which was ramped to 98% B over 2 minutes and then held for 0.20 minutes and returned to initial conditions (5% B) over 0.5 minutes, for a total run time of 3.00 minutes. The analytical column used was a Phenomenex Kinetex 2.6 μm, 2.1×50 mm (Phenomenex, Torrance, Calif.), with an injection volume of 10 μL. The mass spectrometer was run under positive mode with the source temperature set to 500° C., ionization voltage set to 4.5 kV. The following MS/MS transitions were utilized: for substrate 95A (408→310), substrate 96 (411→313), metabolite 95 (424→326), and metabolite 96B (426→328). Analytes were quantified using Analyst software, version 1.6.2 or earlier (AB Sciex, Framingham, Mass.).
# [2] = Intrinsic clearance (CLint) in cynomolgus monkey liver microsomes; type: in vitro ADME; conditions: for Rate of metabolite / intrinsic clearance in comparison to undeuterated form (95A) / rate of metabolite formation in comparison to undeuterated form (95A): monkey liver microsomes; for microsomal CLint at 1 μM / half-life at 1 μM: monkey, liver microsomes, pH 7.4, monkey liver microsomes; for half-life at 1 μM: read-out: T½
# Description: Intrinsic Clearance (CLint) in Cynomolgus Monkey Liver Microsomes
# as §1, with “Incubations (in duplicate) contained either 95A or 96, or both 95A and 96 at final concentrations of 1 μM, pooled cynomolgus monkey liver microsomes (Xenotech, LLC, Lenexa, Kans., 0.25 μM CYP protein equivalent to 0.21 mg/mL protein concentration), NADPH (1.3 mM), magnesium chloride (3.3 mM) and potassium phosphate buffer (100 mM, pH 7.4). The final” for “The final”, “incubations were vortexed for 1” for “incubations were vortex for 1”, “formic acid (v/v). The plates were” for “formic acid (v/v), the plates were”, “capped and vortexed for 1” for “capped and vortex for 1”
# as §2
# [3] = Human liver microsomes enzyme kinetics (metabolite formation); type: in vitro ADME
# Description: Human Liver Microsomes Enzyme Kinetics
# Incubations (in triplicate) contained 95A or 96 (1-1000 μM, final concentrations), pooled human liver microsomes (BD Biosciences, Bedford, Mass., 0.25 protein concentration, NADPH (1.3 mM), magnesium chrolide (5 mM) and potassium phosphate buffer (100 mM, pH 7.4). The final reaction volume (100 μL) contained 1 acetonitrile. The incubations were conducted at 37° C. At time points of 15 minutes for 95A, or 30 min for 96, 50 μL of incubate was quenched by the addition of 200 μL of cold acetonitrile containing 0.1% formic acid (v/v) and mass spectrometry (MS) internal standard. Quenched samples were vortexed for 1 minute followed by centrifugation at 3000 rpm for 5 minutes at room temperature (Allegra X-12R, Beckman Coulter, Fullerton, Calif.). The supernatant (150 μL) was placed into a clean injection sample block and dried down under nitrogen gas, then reconstituted with 150 μL of water containing 0.1% formic acid (v/v). The plates were capped and vortexed for 1 minute and subsequently analyzed using LC-MS/MS as described below. Formation of metabolites 95 (from substrate 95A) and 96B (from substrate 96) was quantitated using a standard curve (0.5-5000 nM) generated using a synthetic standard of substrate 95. Standard curve samples were prepared, processed, and analyzed as described above.
# as §2
# mutant G2019S LRRK2 = mutant G2019S LRRK2 (Homo sapiens (Human), UniProt Q5S007, G2019S); assay: LRRK2 kinase assay (LanthaScreen), G2019S mutant; type: biochemical; conditions: G2019S mutant LRRK2; LanthaScreen, LRRKtide substrate; read-out: LRRK2, G2019S IC50
# Sequence of mutant G2019S LRRK2 (Q5S007 whole entry G2019S, the tested form may be a part): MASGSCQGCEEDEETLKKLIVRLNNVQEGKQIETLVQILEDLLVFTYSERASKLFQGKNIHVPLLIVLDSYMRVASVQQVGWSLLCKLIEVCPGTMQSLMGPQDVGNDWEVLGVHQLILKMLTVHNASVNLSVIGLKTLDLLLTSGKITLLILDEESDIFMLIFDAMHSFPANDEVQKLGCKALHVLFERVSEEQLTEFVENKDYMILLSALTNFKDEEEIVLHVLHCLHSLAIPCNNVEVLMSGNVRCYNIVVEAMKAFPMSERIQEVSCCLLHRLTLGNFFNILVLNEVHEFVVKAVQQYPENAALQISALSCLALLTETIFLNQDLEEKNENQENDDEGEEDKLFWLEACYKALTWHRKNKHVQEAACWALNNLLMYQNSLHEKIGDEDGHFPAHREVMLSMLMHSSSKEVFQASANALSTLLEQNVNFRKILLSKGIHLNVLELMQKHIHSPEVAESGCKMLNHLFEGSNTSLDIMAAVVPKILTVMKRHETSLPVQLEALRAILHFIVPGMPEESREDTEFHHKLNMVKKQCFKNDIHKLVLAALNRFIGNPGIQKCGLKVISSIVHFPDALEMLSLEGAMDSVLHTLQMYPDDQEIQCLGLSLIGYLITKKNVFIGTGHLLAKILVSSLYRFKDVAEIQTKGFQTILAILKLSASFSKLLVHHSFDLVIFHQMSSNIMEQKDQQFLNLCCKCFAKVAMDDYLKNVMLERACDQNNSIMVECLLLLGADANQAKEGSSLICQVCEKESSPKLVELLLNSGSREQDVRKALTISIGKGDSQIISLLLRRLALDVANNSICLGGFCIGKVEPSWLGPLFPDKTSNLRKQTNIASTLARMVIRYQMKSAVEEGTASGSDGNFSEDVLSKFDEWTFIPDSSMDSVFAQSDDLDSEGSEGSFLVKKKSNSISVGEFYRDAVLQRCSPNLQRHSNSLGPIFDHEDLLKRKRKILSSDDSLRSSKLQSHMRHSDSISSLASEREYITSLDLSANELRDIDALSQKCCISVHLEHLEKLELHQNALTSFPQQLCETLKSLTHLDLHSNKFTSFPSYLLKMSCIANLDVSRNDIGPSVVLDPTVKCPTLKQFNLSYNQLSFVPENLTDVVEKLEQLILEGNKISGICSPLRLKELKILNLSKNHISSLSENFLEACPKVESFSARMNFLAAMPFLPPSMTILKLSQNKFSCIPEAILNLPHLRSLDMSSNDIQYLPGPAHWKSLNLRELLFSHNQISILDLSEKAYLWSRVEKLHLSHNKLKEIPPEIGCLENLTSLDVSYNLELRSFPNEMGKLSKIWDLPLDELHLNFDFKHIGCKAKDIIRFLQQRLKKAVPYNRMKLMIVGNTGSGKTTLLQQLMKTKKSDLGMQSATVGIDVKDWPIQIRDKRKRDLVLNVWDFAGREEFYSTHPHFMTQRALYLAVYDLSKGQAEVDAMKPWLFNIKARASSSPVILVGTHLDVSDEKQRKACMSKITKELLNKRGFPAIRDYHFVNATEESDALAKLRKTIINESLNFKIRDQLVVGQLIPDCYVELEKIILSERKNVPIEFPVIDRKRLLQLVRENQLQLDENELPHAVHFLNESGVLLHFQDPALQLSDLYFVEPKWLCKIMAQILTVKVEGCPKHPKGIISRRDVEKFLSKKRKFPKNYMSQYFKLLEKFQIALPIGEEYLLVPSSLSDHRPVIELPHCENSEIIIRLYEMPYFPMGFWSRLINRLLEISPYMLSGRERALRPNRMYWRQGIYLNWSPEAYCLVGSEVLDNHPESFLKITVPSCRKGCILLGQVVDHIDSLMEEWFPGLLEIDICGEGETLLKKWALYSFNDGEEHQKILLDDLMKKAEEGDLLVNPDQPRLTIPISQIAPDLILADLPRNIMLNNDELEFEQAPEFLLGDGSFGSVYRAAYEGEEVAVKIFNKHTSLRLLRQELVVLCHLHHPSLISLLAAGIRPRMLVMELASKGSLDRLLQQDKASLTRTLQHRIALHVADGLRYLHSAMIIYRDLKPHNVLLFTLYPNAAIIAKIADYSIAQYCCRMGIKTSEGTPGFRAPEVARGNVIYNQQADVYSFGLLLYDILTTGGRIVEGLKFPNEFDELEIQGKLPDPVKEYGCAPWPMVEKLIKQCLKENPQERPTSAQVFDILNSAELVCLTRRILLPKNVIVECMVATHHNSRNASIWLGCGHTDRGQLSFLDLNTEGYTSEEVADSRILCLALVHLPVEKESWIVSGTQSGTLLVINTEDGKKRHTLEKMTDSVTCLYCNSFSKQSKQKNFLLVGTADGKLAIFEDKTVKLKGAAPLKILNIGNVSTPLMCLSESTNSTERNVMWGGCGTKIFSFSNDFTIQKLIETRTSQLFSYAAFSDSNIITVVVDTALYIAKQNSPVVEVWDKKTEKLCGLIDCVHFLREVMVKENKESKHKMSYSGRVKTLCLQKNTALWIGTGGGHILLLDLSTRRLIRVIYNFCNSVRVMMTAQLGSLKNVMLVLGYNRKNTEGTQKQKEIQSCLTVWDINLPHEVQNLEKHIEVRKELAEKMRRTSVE
# In short: (§3)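 GST-tagged truncated enzyme (2 μg/mL) phosphorylates 100 nM fluorescein-LRRKtide with 1 mM ATP in HEPES pH 7.5, 3 mM MgCl2, DTT, Brij35; 30 min, room temperature, compound dose response top 3 μM. Stopped with EDTA; phospho-ERM detected by terbium anti-phospho-ERM TR-FRET; identical conditions for both enzymes.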
# [4] = target: LRRK2, WT (GST-tagged truncated LRRK2) (Homo sapiens, UniProt Q5S007); assay: LRRK2 kinase assay (LanthaScreen), wild type; type: biochemical; conditions: wild type LRRK2; LanthaScreen, LRRKtide substrate
# In short: as §3
# [5] = combined substrates 95A and 96 - competition
# [6] = combined substrates (competition)
# [7] = individual substrates, metabolite 95 from 95A, 96B from 96
# [8] = formation of metabolite 95 (from 95A) or 96B (from 96), human liver microsomes
Compound,"microsomal CLint at 1 μM [1, 5] [µL/min/mg]","half-life at 1 μM [1, 5] [min]","microsomal CLint at 1 μM ([1]; individual substrates, 1 μM) [µL/min/mg]","half-life at 1 μM ([1]; individual substrates, 1 μM) [min]","microsomal CLint at 1 μM [2, 5] [µL/min/mg]","half-life at 1 μM [2, 5] [min]","microsomal CLint at 1 μM ([2]; individual substrates, 1 μM) [µL/min/mg]","half-life at 1 μM ([2]; individual substrates, 1 μM) [min]",IC50 (mutant G2019S LRRK2) [nM],further results
"[2H]C([2H])([2H])c1cnc(Cc2nc3cnc4ccc(Cl)cc4c3n2[C@@H]2CCO[C@H](C)C2)cn1 [Example 96, 8-chloro-2-{[5-(^2H3)methylpyrazin-2-yl]methyl}-1-[(2R,4R)-2-methyltetrahydro-2H-pyran-4-yl]-1H-imidazo[4,5-c]quinoline]",6.86,127,6.68,90.4,110,29.9,151,21.9,–,"Rate of metabolite [1, 5]: 1.65 nmol/min/mg; intrinsic clearance in comparison to undeuterated form (95A) [1, 6]: decreased intrinsic clearance; rate of metabolite formation in comparison to undeuterated form (95A) [1, 6]: lower rate of metabolite formation; intrinsic clearance in comparison to undeuterated form (95A) ([1]; individual substrates): decreased intrinsic clearance; rate of metabolite formation in comparison to undeuterated form (95A) ([1]; individual substrates): lower rate of metabolite (96B) formation; Rate of metabolite [1, 7]: 1.10 nmol/min/mg; Rate of metabolite [2, 5]: 25.19 nmol/min/mg; intrinsic clearance in comparison to undeuterated form (95A) [2, 6]: decreased intrinsic clearance; rate of metabolite formation in comparison to undeuterated form (95A) [2, 6]: lower rate of metabolite formation; intrinsic clearance in comparison to undeuterated form (95A) ([2]; individual substrates): decreased intrinsic clearance; rate of metabolite formation in comparison to undeuterated form (95A) ([2]; individual substrates): lower rate of metabolite (96B) formation; Rate of metabolite [2, 7]: 22.83 nmol/min/mg; intrinsic clearance in comparison to undeuterated form (95A) ([3]; human liver microsomes enzyme kinetics): decreased intrinsic clearance"
"Cc1cnc(Cc2nc3cnc4ccc(Cl)cc4c3n2[C@@H]2CCO[C@H](C)C2)cn1 [Example 95A, 8-chloro-2-[(5-methylpyrazin-2-yl)methyl]-1-[(2R,4R)-2-methyltetrahydro-2H-pyran-4-yl]-1H-imidazo[4,5-c]quinoline]",14,65.9,16,54.4,193,17.2,215,15.3,6.06,"Km [3, 8]: 15.2 µM; Vmax [3, 8]: 0.229 nmol/min/mg; microsomal CLint ([3]; pH 7.4, formation of metabolite 95 (from 95A) or 96B (from 96), human liver microsomes): 15.1 µL/min/mg"
"CN1CC(n2c(Cn3cc(C4CC4)nn3)nc3cnc4ccc(Cl)cc4c32)C(F)(F)C1 (centres unmarked) [Example 47, 8-chloro-2-[(4-cyclopropyl-1H-1,2,3-triazol-1-yl)methyl]-1-(4,4-difluoro-1-methylpyrrolidin-3-yl)-1H-imidazo[4,5-c]quinoline]",–,–,–,–,–,–,–,–,1.42,IC50 [4]: 2.8 nM
